Test results published in ChEMBL document CHEMBL4414634, “Alternatone A, an Unusual Perylenequinone-Related Compound from a Soft-Coral-Derived Strain of the Fungus Alternaria alternata” (J Nat Prod, 2019).
Calls of active or inactive are those of the source. No cut-off for these calls is given here.

How the values were obtained:
Assay type in all cases: functional, cell-based
A549 = experiment: Antiproliferative activity against human A549 cells assessed as reduction in cell viability by SRB assay
HCT-116 = experiment: Antiproliferative activity against human HCT116 cells assessed as reduction in cell viability by SRB assay
HeLa = experiment: Antiproliferative activity against human HeLa cells assessed as reduction in cell viability by MTT assay

Compound: O=C1C[C@@H](O)[C@@H]2c3ccc(O)c4c3[C@@H](c3ccc(O)c1c32)[C@H](O)CC4=O
- Activity (A549): inactive
- Activity (HCT-116): inactive
- Activity (HeLa): inactive

Compound: O=C1C[C@@H]2[C@@H]3C(=O)c4c(O)cccc4[C@@H]([C@@H]3O)[C@@H]2c2cccc(O)c21
- Activity (A549): inactive
- Activity (HCT-116): inactive
- Activity (HeLa): inactive

Compound: O=C1C[C@H](O)[C@@H]2c3c(ccc(O)c31)-c1ccc(O)c3c1[C@@]2(O)C=CC3=O
- IC50 (A549): 2.6 µM
- IC50 (HCT-116): 2.4 µM
- IC50 (HeLa): 3.1 µM

Compound: O=C1C[C@H](O)[C@@H]2c3c(ccc(O)c31)-c1ccc(O)c3c1[C@@]2(O)CCC3=O
- Activity (A549): inactive
- Activity (HCT-116): inactive
- Activity (HeLa): inactive
